Some test systems named below: ACHN renal; IGROV1 ovarian; NCI-H23 lung; OVCAR-8 ovarian; SK-MEL-2 melanoma; SNB-75 CNS; UACC-62 melanoma; HOP-62 NSCLC.
What all share (experiment): growth of human tumour cells (NCI), 48 h

Values joined by “and” are separate entries in the source; they are usually repeats but may differ in a detail not shown here. Identical values can stand only once.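 Values below derive from 48-hour exposures of cells grown in 96-well plates, with endpoints linearly interpolated between the two concentrations bracketing the appropriate inhibition level. The concentration for 50% growth inhibition is given as GI50. TGI marks complete inhibition of growth.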

In the case of `[Cl][Bi]([O]c1ccccn1)[O]c1ccccn1`, the GI50 in the assay on ACHN renal, in the assay with IGROV1 ovarian, with NCI-H23 lung, with OVCAR-8 ovarian, with SK-MEL-2 melanoma and in the assay on SNB-75 CNS was greater than 100 µM in each case. Besides, in the assay on UACC-62 melanoma, the GI50 was greater than 100 µM. Further, the TGI in the assay with ACHN renal, in the assay on IGROV1 ovarian, in the assay with NCI-H23 lung, with OVCAR-8 ovarian, with SK-MEL-2 melanoma and in the assay with SNB-75 CNS was greater than 100 µM throughout. This compound also registered a TGI with UACC-62 melanoma greater than 100 µM.
As to `O=C1C(Cl)=C(Cl)C(=O)N1C1C2CC3CC(C2)CC1C3` (stereo not given), the TGI in the assay on ACHN renal, with HOP-62 NSCLC, with IGROV1 ovarian, with NCI-H23 lung, in the assay with OVCAR-8 ovarian and in the assay on SK-MEL-2 melanoma was greater than 100 µM throughout. The TGI in the assay on SNB-75 CNS and in the assay with UACC-62 melanoma was greater than 100 µM each time.
For the compound `O=C1c2cccc3cc([N+](=O)[O-])cc(c23)C(=O)N1CCNCCNCCNCCN1C(=O)c2cccc3cc([N+](=O)[O-])cc(c23)C1=O`, the TGI with HOP-62 NSCLC was 0.216 µM and 0.444 µM; with IGROV1 ovarian it was 0.205 µM; with OVCAR-8 ovarian, 0.512 µM; in the assay on SK-MEL-2 melanoma, 0.283 µM; with SNB-75 CNS it was 0.133 µM; with UACC-62 melanoma, 0.106 µM.
On to `COC(=O)C1CC(C(=O)OC)c2nc3cc(C)ccc3nc21` (stereo not given), for which the TGI in the assay on ACHN renal, with HOP-62 NSCLC, in the assay with IGROV1 ovarian, in the assay with NCI-H23 lung, with OVCAR-8 ovarian and in the assay on SK-MEL-2 melanoma was greater than 100 µM throughout. Also, the TGI with SNB-75 CNS and in the assay with UACC-62 melanoma was greater than 100 µM throughout.
Take `Cc1ccc(NC(=O)CC2C(=O)Nc3ccccc3S2=O)cc1C` (stereo not given): the TGI with ACHN renal, in the assay with IGROV1 ovarian, in the assay on NCI-H23 lung, in the assay with OVCAR-8 ovarian, in the assay with SK-MEL-2 melanoma and with SNB-75 CNS was greater than 100 µM in each case. Further, the TGI in the assay with UACC-62 melanoma is greater than 100 µM.
As for `CC(CN(CP(=O)([O-])[O-])CP(=O)([O-])[O-])N(CP(=O)([O-])[O-])CP(=O)([O-])[O-].N.N.[Pt+2]` (stereo not given), the GI50 in the assay with ACHN renal, in the assay on HOP-62 NSCLC, with IGROV1 ovarian, in the assay on NCI-H23 lung, in the assay on OVCAR-8 ovarian and in the assay with SK-MEL-2 melanoma was greater than 100 µM in each case. Moreover, the GI50 with SNB-75 CNS and with UACC-62 melanoma was greater than 100 µM in each case. Also, the TGI in the assay on ACHN renal, with HOP-62 NSCLC, in the assay on IGROV1 ovarian, in the assay on NCI-H23 lung, with OVCAR-8 ovarian and in the assay with SK-MEL-2 melanoma was greater than 100 µM in each case. Besides, the TGI with SNB-75 CNS and in the assay with UACC-62 melanoma was greater than 100 µM each time.
For the compound `Clc1ccc(Cl)c2[s+]snc12`, the TGI in the assay on ACHN renal, with HOP-62 NSCLC, in the assay on IGROV1 ovarian, in the assay on NCI-H23 lung, with OVCAR-8 ovarian and with SNB-75 CNS was greater than 100 µM each time. This compound showed a TGI in the assay on UACC-62 melanoma greater than 100 µM.
In the case of `O=S(=O)([O-])c1cccc2cccc(N=Cc3ccccc3[O-])c12.O=S(=O)([O-])c1cccc2cccc(N=Cc3ccccc3[O-])c12.[O]=[U]=[O]`, the GI50 in the assay with ACHN renal is 38.5 µM; with HOP-62 NSCLC, 42.6 µM; in the assay with IGROV1 ovarian, 70.6 µM; in the assay with NCI-H23 lung, 51.5 µM; in the assay with OVCAR-8 ovarian, 38.5 µM; with SK-MEL-2 melanoma, greater than 100 µM. Besides, the GI50 was 23.3 µM in the assay on SNB-75 CNS and greater than 100 µM with UACC-62 melanoma. Also, the TGI in the assay on ACHN renal, in the assay with HOP-62 NSCLC, with IGROV1 ovarian, in the assay with NCI-H23 lung, in the assay on OVCAR-8 ovarian and in the assay on SK-MEL-2 melanoma was greater than 100 µM each time. The results for the TGI with SNB-75 CNS and in the assay with UACC-62 melanoma were 57.9 µM and greater than 100 µM, respectively.
With `CC1OC(n2ncc(=O)[nH]c2=O)C=CC1=O` (stereo not given), the TGI with ACHN renal was greater than 100 µM; in the assay with HOP-62 NSCLC, greater than 100 µM; in the assay with IGROV1 ovarian, greater than 100 µM; in the assay with NCI-H23 lung it was > 100 µM and 37.3 µM; in the assay with OVCAR-8 ovarian it was greater than 100 µM; in the assay on SK-MEL-2 melanoma, greater than 100 µM. In addition, the TGI in the assay on SNB-75 CNS and in the assay on UACC-62 melanoma was greater than 100 µM each time. For the same compound, the GI50 in the assay with HOP-62 NSCLC is > 100 µM and 42.1 µM; in the assay with NCI-H23 lung, 34.7 µM and 16.5 µM; in the assay with SK-MEL-2 melanoma, > 100 µM and 49.2 µM.
In the case of `Clc1ccc(-n2nnc(C3=NCCN3)c2-c2ccccc2)cc1`, the TGI in the assay on ACHN renal, with HOP-62 NSCLC, in the assay on IGROV1 ovarian, with NCI-H23 lung, in the assay on OVCAR-8 ovarian and in the assay on SK-MEL-2 melanoma was greater than 100 µM each time. The TGI in the assay with SNB-75 CNS and in the assay on UACC-62 melanoma was greater than 100 µM each time.
Take `COc1ccc2[nH]c(-c3ccccn3)cc(=O)c2c1`: the TGI is greater than 100 µM in the assay with ACHN renal; greater than 100 µM in the assay on HOP-62 NSCLC; greater than 100 µM in the assay on IGROV1 ovarian; greater than 100 µM in the assay on NCI-H23 lung; greater than 100 µM in the assay with OVCAR-8 ovarian; 88 µM with SNB-75 CNS. The same compound came in with a TGI in the assay with UACC-62 melanoma greater than 100 µM.
For the compound `O=C(O)CNc1c2ccccc2nc2ccccc12`, the TGI with ACHN renal, in the assay with IGROV1 ovarian, in the assay with NCI-H23 lung, with OVCAR-8 ovarian, in the assay with SK-MEL-2 melanoma and with SNB-75 CNS was greater than 100 µM each time. This compound gave a TGI in the assay with UACC-62 melanoma greater than 100 µM.
For `COC(=O)C1=C(C)N(NC(N)=O)C2(N)N(NC(N)=O)C(C)=C(C(=O)OC)C12C(=O)OC` (stereo not given), the TGI in the assay with ACHN renal, in the assay on HOP-62 NSCLC, in the assay on IGROV1 ovarian, in the assay on NCI-H23 lung, in the assay on OVCAR-8 ovarian and in the assay with SK-MEL-2 melanoma was greater than 100 µM in each case. Moreover, the TGI in the assay with UACC-62 melanoma is greater than 100 µM.
In the case of `CCCCCCCCCC(=O)CC(=O)c1ccc(O)cc1O`, the TGI in the assay with ACHN renal was 89.3 µM; in the assay on HOP-62 NSCLC, 46.5 µM; in the assay with IGROV1 ovarian it was greater than 100 µM; in the assay with NCI-H23 lung, 59.8 µM; in the assay with OVCAR-8 ovarian, 67.9 µM; in the assay with SK-MEL-2 melanoma it was 49.9 µM. Further, the TGI with SNB-75 CNS was 95.5 µM; in the assay on UACC-62 melanoma, 43 µM.

Values taken from PubChem BioAssay (NCI).
